Earlier results as cited in patent publication US20020147153A1, “Nutritional supplement to alleviate symptoms associated with reduced levels of serotonin” (Functional Foods, Inc., priority 2001, published 2002).

Columns and labels:
[1] = area under glycemic response curve, 2-hour period after 50 g carbohydrate, relative to white bread or glucose standard

**Q.** For Cn1c(=O)c2c(ncn2C)n(C)c1=O [Caffeine], which “time to increased mental alertness” value (safe and rapid manner) is on record?
**A.** approximately 30 minutes

**Q.** And the “time of maximum effect” value (then almost entirely excreted)?
**A.** 2 to 4.5 h

**Q.** With O=C(CO)[C@@H](O)[C@H](O)[C@H](O)CO [Fructose] as the compound, how does the “glycemic index (GI)” value [1] read?
**A.** 32
